Results as given in US20230285570A1, “THERAPEUTICALLY USEFUL CURE-PRO MOLECULES FOR E3 LIGASE MEDIATED DEGRADATION OF PROTEINS, AND METHODS OF MAKING AND USING THEM” (CORNELL UNIVERSITY, priority 2020, published 2023).
“Also recorded” adds a separate entry of the source.

Assays:
Format in all cases: cell-based
BRD4 [1] = target: T1, BRD4 (Homo sapiens, UniProt O60885); experiment: CURE-PRO-mediated BRD4 degradation in HCT116 cells, WES (ProteinSimple); design: endogenous in cells; conditions: 1 μM-10 μM each
Experimental: All cell lines were purchased from ATCC or DSMZ and grown at 37° C. with 5% CO2. Human HeLa cells were cultured in complete growth medium (Dulbecco's modified Eagle's medium (DMEM) supplemented with 10% FBS); MCF7 cells were cultured in complete growth medium (Dulbecco's modified Eagle's medium (DMEM) supplemented with 10% FBS and 0.01 mg/ml human recombinant insulin (Sigma Aldrich); Namalwa and Ramos cells were cultured in complete growth medium (RPMI 1640 medium supplemented with 10% FBS); HCT116 and HT29 cells were cultured in complete growth medium (McCoy's 5a Medium supplemented with 10% FBS). For cellular degradation of BRD4 studies cells were seeded in a 12-well plate at 70-80% confluency, allowed to attach overnight, and incubated with the indicated compounds for the indicated time. When indicated, a 15-minute pretreatment with 10 μM pomalidomide, 10 μM VHL298, 10 μM Nutlin3a, 1 μM MG-132 or 1 μM Carfilzomib was performed before the addition of CURE-PROs. For washout studies, after CURE-PRO treatment, media was aspirated and incubated with complete medium for the indicated time before lysis.
WES Simple analysis was performed on WES system (ProteinSimple-Biotechne) according to the manufacturer's instructions. Total protein concentrations of cell lysates were determined by the Pierce BCA kit (Thermo Fisher). 3 μL of 0.3 μg/μL of the protein lysate was loaded onto a 12- to 230-kDa WES assay plate (ProteinSimple) where 300 nL sample was withdrawn through a capillary, subjected to electrophoretic separation of proteins by size, and followed by the simultaneous, HRP-based detection of proteins using the Anti-Rabbit Detection Module (Proteinsimple: #DM-001). The electropherograms were checked then the automatic peak detection was manually corrected if it was required.
(§1) HCT116 cells (3×10^6) were treated for 24 hours with the compounds solubilized in DMSO. Compounds were added at 1 μM-10 μM each. Standardized protein samples were electrophoresed and imaged as described in the WES ProteinSimple section above. FIGS. 59, 60, and 61 depict the concentration-dependence of CURE-PRO-mediated BRD4 degradation using MDM2 ligands.
as §1, with “62” for “59, 60,”, “63” for “61”
HCT116 cells (3×10^6) were treated for 24 hours with the compounds solubilized in DMSO. CURE-PRO monomers were added at 10 μM each and the proteasomal inhibitors at 1 μM. Standardized protein samples were electrophoresed and imaged as described in the WES ProteinSimple section above. FIG. 68 depicts the dependence of the proteasome for CURE-PRO-mediated BRD4 degradation.

BRD4 [2] = target: T1, BRD4; experiment: Summary of BRD4 degradation by CURE-PRO pairs, estimated from Western Blot or WES; design: endogenous in cells; conditions: for Degradation of BRD4, combination with CRBN ligand 8047: Table 1, aryl-boronic acid BRD4 ligand + 8047; for Degradation of BRD4, combination with MDM2 ligand 8314: Table 2, aryl-boronic acid BRD4 ligand + 8314; for Degradation of BRD4, combination with CRBN ligand 8046: Table 1, aryl-boronic acid BRD4 ligand + 8046; for Degradation of BRD4, combination with CRBN ligand 8066: Table 1, aryl-boronic acid BRD4 ligand + 8066
Method in brief: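 Degradation read-out from immunoblot with ECL, or WES capillary electrophoresis with HRP detection, of RIPA lysates. Cells (Namalwa, Ramos, HeLa, MCF7, HT29 or HCT116) were exposed to DMSO-solubilized compounds for 24 h; a check mark marks 30% to 70% or higher degradation.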

BRD4 [3] = target: T1, BRD4; experiment: CURE-PRO-mediated BRD4 degradation in HeLa cells, Western blot; design: endogenous in cells; host or cells: HeLa; conditions: 24 h; for BRD4 degradation: 10 μM each
Method in brief: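 HeLa cells (2.5×10^6) treated 24 h with DMSO-solubilized compounds, degrader pairs combined 1:1, at 1 nM-1 μM, 1-10 μM, 10 μM or 10 and 100 μM each depending on series. RIPA lysates (10-20 μg protein) run on SDS-PAGE and immunoblotted for BRD4 with ECL detection.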

MV-4-11 cells = experiment: CellTiter-Glo cell viability, MV-4-11 cells; conditions: for loss of cellular viability (toxicity) versus monomers alone: cotreated 1:1 with each of CRBN ligands 8046, 8047 and 8066, MV-4-11, 72 h, 10 nM-100 μM
Experimental: CellTiter-Glo® 2.0 Cell Viability Assay (Promega) was carried out following the manufacturer's recommendations. Cells were seeded at a density of 1000 cells/well in a white 96 well plates (Corning, #3917) in a total volume of 100 μl with respective monomers, combinations of BRD ligands together with E3 ligase ligands or vehicle control treatment. After a 72 h incubation, 100 ul of the CellTiter-Glo® substrate was added per well and luminescence was read on a Spectramax M5 (Molecular Devices). Dose-response curves were generated using Graphpad Prism software.
MV-4-11 cells (5×10^4) were treated for 24 hours with the sample compounds solubilized in DMSO. The compounds were added at 1 nM-100 μM each. Cellular viability was determined using the CellTiter-Glo® Luminescent Cell Viability Assay (Promega) described above. FIGS. 19-22 depict the CURE-PRO-mediated loss of cellular viability for BRD monomers (JQ1 derivatives comprising of catechol linkers), and CRBN ligand, 8049 (pomalidomide derivatives comprising boronic acid linkers) combined in a 1:1 ratio.
MV-4-11 cells (1×10^4) were treated for 72 hours with the compounds solubilized in DMSO. Compounds were added at 10 nM-100 μM each. Cellular viability was determined using the CellTiter-Glo® Luminescent Cell Viability Assay (Promega) described above. FIGS. 47-54 depict the CURE-PRO-mediated loss of cellular viability for BRD monomers (JQ1 derivatives comprising of boronic acid linkers), and CRBN ligands, 8046, 8047 and 8066 (pomalidomide derivatives comprising diol linkers) combined in a 1:1 ratio.

[4] = 1:1 with MDM2 ligand 8313, HCT116, 24 h
[5] = 1:1 with MDM2 ligand 8314, HCT116, 24 h
[6] = co-treated 1:1 with CRBN ligand 8046, HeLa
[7] = co-treated 1:1 with CRBN ligand 8066, HeLa

Compound | Degradation of BRD4, combination with CRBN ligand 8047 (BRD4 [2]) | loss of cellular viability (toxicity) versus monomers alone (MV-4-11 cells) | Degradation of BRD4, combination with CRBN ligand 8046 (BRD4 [2]) | Degradation of BRD4, combination with CRBN ligand 8066 (BRD4 [2]) | BRD4 degradation (BRD4 [3]; [6]) | BRD4 degradation (BRD4 [3]; [7]) | other results
CCNC(=O)C[C@@H]1N=C(c2ccc(Cl)cc2)c2cc(OCCNC(=O)c3cccc(B(O)O)c3)ccc2-n2c(C)nnc21 [BRD-E21, (3-((2-(((4S)-6-(4-chlorophenyl)-4-(2-(ethylamino)-2-oxoethyl)-1-methyl-4H-benzo[f][1,2,4]triazolo[4,3-a][1,4]diazepin-8-yl)oxy)ethyl)carbamoyl)phenyl)boronic acid] | √ (A black check mark indicates efficacy of 30% to 70% or higher protein degradation) | – | – | – | – | – | BRD4 degradation (BRD4 [1]; [4]): had no effect on BRD4 protein levels; BRD4 degradation (BRD4 [1]; [5]): caused partial loss of the BRD4 protein; also recorded: Degradation is observed; Degradation of BRD4, combination with MDM2 ligand 8314 (BRD4 [2]): √ (A black check mark indicates efficacy of 30% to 70% or higher protein degradation); concentration from which BRD4 degradation is observed (BRD4 [3]; 1:1 with CRBN ligand 8047, HeLa, 1 nM-1 μM each): ≥ 10 nM; BRD4 expression (BRD4 [3]; BRD monomer alone, HeLa, 1 nM-1 μM): no change in expression is observed
COc1ccc2c(c1)C(c1ccc(Cl)cc1)=N[C@@H](CC(=O)NCCNC(=O)/C=C/c1ccc(B(O)O)cc1)c1nnc(C)n1-2 [BRD-E29, (4-((E)-3-((2-(2-((4S)-6-(4-chlorophenyl)-8-methoxy-1-methyl-4H-benzo[f][1,2,4]triazolo[4,3-a][1,4]diazepin-4-yl)acetamido)ethyl)amino)-3-oxoprop-1-en-1-yl)phenyl)boronic acid] | √ (A black check mark indicates efficacy of 30% to 70% or higher protein degradation) | reduced viability; also recorded: increased toxicity | √ (A black check mark indicates efficacy of 30% to 70% or higher protein degradation) | √ (A black check mark indicates efficacy of 30% to 70% or higher protein degradation) | causes degradation of BRD4; also recorded: Degradation is noted | causes degradation of BRD4; also recorded: Degradation is noted | BRD4 degradation (BRD4 [3]; co-treated 1:1 with CRBN ligand 8047, HeLa): causes degradation of BRD4; also recorded: Degradation is noted
COc1ccc2c(c1)C(c1ccc(Cl)cc1)=N[C@@H](CC(=O)NCCOCCOCCNC(=O)c1cccc(B(O)O)c1)c1nnc(C)n1-2 [BRD-E46] | – | reduced viability; also recorded: increased toxicity | √ (A black check mark indicates efficacy of 30% to 70% or higher protein degradation) | √ (A black check mark indicates efficacy of 30% to 70% or higher protein degradation) | causes degradation of BRD4; also recorded: Degradation is noted | causes degradation of BRD4; also recorded: Degradation is noted | –
COc1ccc2c(c1)C(c1ccc(Cl)cc1)=N[C@@H](CC(=O)Nc1cccc(B(O)O)c1)c1nnc(C)n1-2 [BRD-E73, (3-(2-((4S)-6-(4-chlorophenyl)-8-methoxy-1-methyl-4H-benzo[f][1,2,4]triazolo[4,3-a][1,4]diazepin-4-yl)acetamido)phenyl)boronic acid] | – | reduced viability; also recorded: increased toxicity | – | – | – | – | –
CCNC(=O)C[C@@H]1N=C(c2ccc(Cl)cc2)c2cc(Sc3ccc(B(O)O)cc3)ccc2-n2c(C)nnc21 [BRD-E75, (4-(((4S)-6-(4-chlorophenyl)-4-(2-(ethylamino)-2-oxoethyl)-1-methyl-4H-benzo[f][1,2,4]triazolo[4,3-a][1,4]diazepin-8-yl)thio)phenyl)boronic acid] | – | reduced viability; also recorded: increased toxicity | – | – | – | – | Degradation of BRD4, combination with MDM2 ligand 8314 (BRD4 [2]): √ (A black check mark indicates efficacy of 30% to 70% or higher protein degradation)
CCNC(=O)C[C@@H]1N=C(c2ccc(Cl)cc2)c2cc(OCCCCCCCNC(=O)c3ccc(B(O)O)cc3)ccc2-n2c(C)nnc21 [BRD-E78] | – | reduced viability; also recorded: increased toxicity | – | – | – | – | Degradation of BRD4, combination with VHL ligand 8305 (BRD4 [2]; Table 3, aryl-boronic acid BRD4 ligand + 8305): √ (A black check mark indicates efficacy of 30% to 70% or higher protein degradation)
CCNC(=O)C[C@@H]1N=C(c2ccc(Cl)cc2)c2cc(OCCCCCCNC(=O)c3ccc(B(O)O)cc3)ccc2-n2c(C)nnc21 [BRD-E79, (4-((6-(((4S)-6-(4-chlorophenyl)-4-(2-(ethylamino)-2-oxoethyl)-1-methyl-4H-benzo[f][1,2,4]triazolo[4,3-a][1,4]diazepin-8-yl)oxy)hexyl)carbamoyl)phenyl)boronic acid] | √ (A black check mark indicates efficacy of 30% to 70% or higher protein degradation) | – | √ (A black check mark indicates efficacy of 30% to 70% or higher protein degradation) | √ (A black check mark indicates efficacy of 30% to 70% or higher protein degradation) | causes degradation of BRD4; also recorded: Degradation is noted | causes degradation of BRD4; also recorded: Degradation is noted | BRD4 degradation (BRD4 [1]; [4]): caused BRD4 protein degradation at 1 and 10 μM; also recorded: Degradation of BRD4 is observed; BRD4 degradation (BRD4 [1]; [5]): no protein loss was observed; Degradation of BRD4, combination with MDM2 ligand 8313 (BRD4 [2]; Table 2, aryl-boronic acid BRD4 ligand + 8313): √ (A black check mark indicates efficacy of 30% to 70% or higher protein degradation)
COc1ccc2c(c1)C(c1ccc(Cl)cc1)=N[C@@H](CC(=O)NCCCCCNC(=O)c1cccc(O)c1O)c1nnc(C)n1-2 [BRD-N8, N-(5-(2-((4S)-6-(4-chlorophenyl)-8-methoxy-1-methyl-4H-benzo[f][1,2,4]triazolo[4,3-a][1,4]diazepin-4-yl)acetamido)pentyl)-2,3-dihydroxybenzamide] | – | – | – | – | – | – | loss of cellular viability (toxicity) (MV-4-11 cells; co-dosed 1:1 with CRBN ligand 8049, MV-4-11, 24 h, 1 nM-100 μM each): concentration-dependent loss in cellular viability; also recorded: increased toxicity
